Measured values: ChEMBL document CHEMBL3526000 (Drug Metab Dispos, 2012)

Assays:
Assay type in all cases: ADME
Conditions in all cases: recombinant enzyme, 1 h
[1] = molecular target: T1, UDP-glucuronosyltransferase 1A3 (Homo sapiens, UniProt P35503); experiment: Drug metabolism assessed as recombinant human UGT1A3 assessed as O-glucuronidation at 100 uM incubated for 60 mins by LC-MS/MS analysis
T1 sequence (P35503 whole entry): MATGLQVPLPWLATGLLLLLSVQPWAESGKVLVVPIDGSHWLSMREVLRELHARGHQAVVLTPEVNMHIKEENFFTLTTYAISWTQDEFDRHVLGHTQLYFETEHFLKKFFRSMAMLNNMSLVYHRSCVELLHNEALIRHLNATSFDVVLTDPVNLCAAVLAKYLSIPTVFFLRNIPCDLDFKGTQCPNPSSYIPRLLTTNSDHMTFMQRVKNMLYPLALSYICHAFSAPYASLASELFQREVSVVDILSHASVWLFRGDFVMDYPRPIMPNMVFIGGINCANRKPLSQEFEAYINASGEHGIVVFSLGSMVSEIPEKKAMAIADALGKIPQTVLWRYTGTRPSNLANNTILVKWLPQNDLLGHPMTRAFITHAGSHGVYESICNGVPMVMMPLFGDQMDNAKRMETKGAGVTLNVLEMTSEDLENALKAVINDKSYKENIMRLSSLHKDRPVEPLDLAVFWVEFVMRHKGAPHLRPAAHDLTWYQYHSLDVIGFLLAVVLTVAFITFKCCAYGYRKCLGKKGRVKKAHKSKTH

[2] = molecular target: T2, UDP-glucuronosyltransferase 2B17 (Homo sapiens, UniProt O75795); experiment: Drug metabolism assessed as recombinant human UGT2B17 assessed as O-glucuronidation at 100 uM incubated for 60 mins by LC-MS/MS analysis
T2 sequence (O75795 whole entry): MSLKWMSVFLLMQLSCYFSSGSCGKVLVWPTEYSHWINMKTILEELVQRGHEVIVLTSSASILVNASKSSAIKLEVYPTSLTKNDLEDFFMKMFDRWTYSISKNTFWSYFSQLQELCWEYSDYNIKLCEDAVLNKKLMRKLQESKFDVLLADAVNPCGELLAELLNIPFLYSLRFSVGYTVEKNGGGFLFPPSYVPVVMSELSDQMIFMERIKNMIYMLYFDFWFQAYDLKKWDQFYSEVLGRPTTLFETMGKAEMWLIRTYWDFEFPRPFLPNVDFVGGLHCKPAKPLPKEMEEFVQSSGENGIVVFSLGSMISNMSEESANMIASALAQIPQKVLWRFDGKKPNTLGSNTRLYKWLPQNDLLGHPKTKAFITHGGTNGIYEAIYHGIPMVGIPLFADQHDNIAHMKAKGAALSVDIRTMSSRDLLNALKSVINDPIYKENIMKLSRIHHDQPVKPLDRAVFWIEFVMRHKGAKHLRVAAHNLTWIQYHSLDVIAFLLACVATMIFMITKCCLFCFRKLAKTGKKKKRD

[3] = molecular target: T3, UDP-glucuronosyltransferase 2B15 (Homo sapiens, UniProt P54855); experiment: Drug metabolism assessed as recombinant human UGT2B15 assessed as N-glucuronidation at 100 uM incubated for 60 mins by LC-MS/MS analysis
T3 sequence (P54855 whole entry): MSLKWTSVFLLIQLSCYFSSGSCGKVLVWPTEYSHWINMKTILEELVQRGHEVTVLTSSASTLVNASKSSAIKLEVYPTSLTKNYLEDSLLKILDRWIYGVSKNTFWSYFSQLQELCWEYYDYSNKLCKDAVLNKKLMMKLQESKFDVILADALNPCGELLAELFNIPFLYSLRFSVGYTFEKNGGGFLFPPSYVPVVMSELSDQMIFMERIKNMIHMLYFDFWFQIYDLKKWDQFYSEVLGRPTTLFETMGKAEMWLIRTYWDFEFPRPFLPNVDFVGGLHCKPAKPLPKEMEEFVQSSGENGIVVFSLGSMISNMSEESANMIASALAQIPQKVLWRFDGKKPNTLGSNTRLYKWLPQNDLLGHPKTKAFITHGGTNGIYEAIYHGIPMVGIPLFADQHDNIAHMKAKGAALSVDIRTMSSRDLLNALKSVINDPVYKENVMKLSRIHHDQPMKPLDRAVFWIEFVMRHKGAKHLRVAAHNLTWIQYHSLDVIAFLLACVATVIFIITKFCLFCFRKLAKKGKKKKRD

[4] = molecular target: T4, UDP-glucuronosyltransferase 1A8 (Homo sapiens, UniProt Q9HAW9); experiment: Drug metabolism assessed as recombinant human UGT1A8 assessed as O-glucuronidation at 100 uM incubated for 60 mins by LC-MS/MS analysis
T4 sequence (Q9HAW9 whole entry): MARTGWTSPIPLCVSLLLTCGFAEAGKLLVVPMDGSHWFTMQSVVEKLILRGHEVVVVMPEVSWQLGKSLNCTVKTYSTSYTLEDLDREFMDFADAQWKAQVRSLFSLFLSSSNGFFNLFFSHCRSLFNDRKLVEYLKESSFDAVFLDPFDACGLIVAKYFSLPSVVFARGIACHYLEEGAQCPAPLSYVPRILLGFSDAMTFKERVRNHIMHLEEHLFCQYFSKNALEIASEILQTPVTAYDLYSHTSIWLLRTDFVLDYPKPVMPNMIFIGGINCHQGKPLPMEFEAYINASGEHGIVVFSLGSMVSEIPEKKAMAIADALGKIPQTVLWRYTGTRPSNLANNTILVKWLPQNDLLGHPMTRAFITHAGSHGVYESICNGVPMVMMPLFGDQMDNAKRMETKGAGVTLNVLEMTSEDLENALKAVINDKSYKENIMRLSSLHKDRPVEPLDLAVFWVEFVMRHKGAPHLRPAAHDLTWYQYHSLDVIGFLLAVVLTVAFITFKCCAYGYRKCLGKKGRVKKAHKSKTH

[5] = molecular target: T5, UDP-glucuronosyltransferase 2B4 (Homo sapiens, UniProt P06133); experiment: Drug metabolism assessed as recombinant human UGT2B4 assessed as O-glucuronidation at 100 uM incubated for 60 mins by LC-MS/MS analysis
T5 sequence (P06133 whole entry): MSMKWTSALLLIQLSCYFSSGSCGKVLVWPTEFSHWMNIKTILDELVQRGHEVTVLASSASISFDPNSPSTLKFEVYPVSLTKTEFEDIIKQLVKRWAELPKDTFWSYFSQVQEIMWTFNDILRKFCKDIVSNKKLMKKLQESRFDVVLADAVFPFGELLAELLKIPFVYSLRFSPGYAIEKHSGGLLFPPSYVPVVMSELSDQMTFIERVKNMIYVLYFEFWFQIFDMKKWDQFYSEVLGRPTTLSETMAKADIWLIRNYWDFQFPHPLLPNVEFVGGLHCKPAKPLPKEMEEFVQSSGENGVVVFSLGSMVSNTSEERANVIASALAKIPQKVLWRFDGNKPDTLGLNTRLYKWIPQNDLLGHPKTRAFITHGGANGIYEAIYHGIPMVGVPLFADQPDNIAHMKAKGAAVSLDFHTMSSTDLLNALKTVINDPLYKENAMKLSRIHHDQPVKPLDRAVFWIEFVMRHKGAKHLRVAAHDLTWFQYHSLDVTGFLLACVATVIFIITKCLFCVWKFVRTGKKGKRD

Measured: Drug metabolism

O=C(CCCN1CCC(O)(c2ccc(Cl)cc2)CC1)c1ccc(F)cc1 [HALOPERIDOL]
metabolite_not_detected: all assays above
